Results reported in ChEMBL document CHEMBL5104131, “Pyrimidine-conjugated fluoroquinolones as new potential broad-spectrum antibacterial agents” (Bioorg Med Chem Lett, 2022).
≈ marks a conversion by molar mass, not a printed value. Calls of active or inactive are those of the source. The rule behind the calls is not given here.

Experiments:
Staphylococcus aureus [1] = experiment: Antibacterial activity against methicillin-resistant Staphylococcus aureus N315 assessed as bacterial growth inhibition by serial dilution method; type: functional
Enterococcus faecalis [2] = experiment: Antibacterial activity against Enterococcus faecalis assessed as bacterial growth inhibition by serial dilution method; type: functional
Staphylococcus aureus [3] = experiment: Antibacterial activity against Staphylococcus aureus assessed as bacterial growth inhibition by serial dilution method; type: functional
Staphylococcus aureus [4] = experiment: Antibacterial activity against Staphylococcus aureus ATCC 25923 assessed as bacterial growth inhibition by serial dilution method; type: functional
Staphylococcus aureus [5] = experiment: Antibacterial activity against Staphylococcus aureus ATCC 29213 assessed as bacterial growth inhibition by serial dilution method; type: functional
Klebsiella pneumoniae = experiment: Antibacterial activity against Klebsiella pneumoniae assessed as bacterial growth inhibition by serial dilution method; type: functional
Escherichia coli [6] = experiment: Antibacterial activity against Escherichia coli assessed as bacterial growth inhibition by serial dilution method; type: functional
Escherichia coli [7] = experiment: Antibacterial activity against Escherichia coli ATCC 25922 assessed as bacterial growth inhibition by serial dilution method; type: functional
Pseudomonas aeruginosa [8] = experiment: Antibacterial activity against Pseudomonas aeruginosa assessed as bacterial growth inhibition by serial dilution method; type: functional
Pseudomonas aeruginosa [9] = experiment: Antibacterial activity against Pseudomonas aeruginosa ATCC 27853 assessed as bacterial growth inhibition by serial dilution method; type: functional
Acinetobacter baumannii = experiment: Antibacterial activity against Acinetobacter baumannii assessed as bacterial growth inhibition by serial dilution method; type: functional
Aspergillus fumigatus = experiment: Antifungal activity against Aspergillus fumigatus assessed as inhibition of fungal growth; type: functional
Enterococcus faecalis [10] = experiment: Potency index, ratio of norfloxacin MIC to test compound MIC for antibacterial activity against Enterococcus faecalis assessed as bacterial growth inhibition by serial dilution method; type: functional
Enterococcus faecalis [11] = experiment: Potency index, ratio of ciprofloxacin MIC to test compound MIC for antibacterial activity against Enterococcus faecalis assessed as bacterial growth inhibition by serial dilution method; type: functional
Staphylococcus aureus [12] = experiment: Potency index, ratio of norfloxacin MIC to test compound MIC for antibacterial activity against Staphylococcus aureus ATCC 25923 assessed as bacterial growth inhibition by serial dilution method; type: functional
Staphylococcus aureus [13] = experiment: Potency index, ratio of norfloxacin MIC to test compound MIC for antibacterial activity against Staphylococcus aureus ATCC 29213 assessed as bacterial growth inhibition by serial dilution method; type: functional
[14] = Cytotoxicity against human HaCaT cells assessed as cell viability at 12.5 ug/ml by CCK-8 assay relative to control; type: toxicity, cell-based; conditions: at 12.5 µg/mL, read-out: Activity
[15] = Cytotoxicity against human HaCaT cells assessed as cell viability at 50 ug/ml by CCK-8 assay relative to control; type: toxicity, cell-based; conditions: at 50 µg/mL, read-out: Activity
Enterococcus faecalis [16] = experiment: Bactericidal activity against Enterococcus faecalis assessed as log reduction in bacterial colony count at 1 times MIC measured after 6 hrs; type: functional
Enterococcus faecalis [17] = experiment: Bactericidal activity against Enterococcus faecalis assessed as log reduction in bacterial colony count at 4 times MIC measured after 6 hrs; type: functional
Enterococcus faecalis [18] = experiment: Inhibition of biofilm formation in Enterococcus faecalis at 2 ug/ml incubated for 24 hrs by crystal violet staining based analysis relative to control; type: functional
[19] = Induction of intracellular ROS accumulation in Enterococcus faecalis assessed as fold increase in fluorescence intensity at 8 times MIC by DCFH-DA dye based fluorescence assay; type: functional
Calf thymus DNA [20] = experiment: Binding affinity to calf thymus DNA assessed as red shift in absorption peak by UV-Vis spectrophotometric analysis; conditions: Bos taurus
Calf thymus DNA [21] = experiment: Binding affinity to calf thymus DNA assessed as DNA-compound complex formation by measuring hyperchromicity by UV-Vis spectrophotometric analysis; type: tissue-based; conditions: Bos taurus
Calf thymus DNA [22] = experiment: Binding affinity to calf thymus DNA assessed as binding constant by UV-Vis spectrophotometric analysis; conditions: Bos taurus
Calf thymus DNA [23] = experiment: Binding affinity to calf thymus DNA assessed as reduction in acridine orange-DNA complex formation by competitive binding assay; conditions: Bos taurus

Cc1ccnc(N2CCN(c3cc4c(cc3F)c(=O)c(C(=O)O)cn4C3CC3)CC2)n1
MIC (Staphylococcus aureus [1]): 64 µg/mL (≈ 151 µM)
MIC (Enterococcus faecalis [2]): 64 µg/mL (≈ 151 µM)
MIC (Staphylococcus aureus [3]): 256 µg/mL (≈ 605 µM)
MIC (Staphylococcus aureus [4]): 4 µg/mL (≈ 9.45 µM)
MIC (Staphylococcus aureus [5]): 32 µg/mL (≈ 75.6 µM)
MIC (Klebsiella pneumoniae): 64 µg/mL (≈ 151 µM)
MIC (Escherichia coli [6]): 64 µg/mL (≈ 151 µM)
MIC (Escherichia coli [7]): 8 µg/mL (≈ 18.9 µM)
MIC (Pseudomonas aeruginosa [8]): 64 µg/mL (≈ 151 µM)
MIC (Pseudomonas aeruginosa [9]): 64 µg/mL (≈ 151 µM)
MIC (Acinetobacter baumannii): 2 µg/mL (≈ 4.72 µM)

CCn1cc(C(=O)O)c(=O)c2cc(F)c(N3CCN(c4ncc(C)cn4)CC3)cc21
MIC (Staphylococcus aureus [1]): 8 µg/mL (≈ 19.4 µM)
MIC (Enterococcus faecalis [2]): 2 µg/mL (≈ 4.86 µM)
MIC (Staphylococcus aureus [3]): 4 µg/mL (≈ 9.72 µM)
MIC (Staphylococcus aureus [4]): 64 µg/mL (≈ 156 µM)
MIC (Staphylococcus aureus [5]): 4 µg/mL (≈ 9.72 µM)
MIC (Klebsiella pneumoniae): 2 µg/mL (≈ 4.86 µM)
MIC (Escherichia coli [6]): 16 µg/mL (≈ 38.9 µM)
MIC (Escherichia coli [7]): 2 µg/mL (≈ 4.86 µM)
MIC (Pseudomonas aeruginosa [8]): 4 µg/mL (≈ 9.72 µM)
MIC (Pseudomonas aeruginosa [9]): 128 µg/mL (≈ 311 µM)
MIC (Acinetobacter baumannii): 128 µg/mL (≈ 311 µM)
MIC (Aspergillus fumigatus): 2 µg/mL (≈ 4.86 µM)

CCn1cc(C(=O)O)c(=O)c2cc(F)c(N3CCN(c4ncc(F)cn4)CC3)cc21
MIC (Staphylococcus aureus [1]): 64 µg/mL (≈ 154 µM)
MIC (Enterococcus faecalis [2]): 4 µg/mL (≈ 9.63 µM)
MIC (Staphylococcus aureus [3]): 4 µg/mL (≈ 9.63 µM)
MIC (Staphylococcus aureus [4]): 16 µg/mL (≈ 38.5 µM)
MIC (Staphylococcus aureus [5]): 16 µg/mL (≈ 38.5 µM)
MIC (Klebsiella pneumoniae): 128 µg/mL (≈ 308 µM)
MIC (Escherichia coli [6]): 16 µg/mL (≈ 38.5 µM)
MIC (Escherichia coli [7]): 128 µg/mL (≈ 308 µM)
MIC (Pseudomonas aeruginosa [8]): 32 µg/mL (≈ 77 µM)
MIC (Pseudomonas aeruginosa [9]): 256 µg/mL (≈ 616 µM)
MIC (Acinetobacter baumannii): > 256 µg/mL

CCn1cc(C(=O)O)c(=O)c2cc(F)c(N3CCN(c4nccc(C)n4)CC3)cc21
MIC (Staphylococcus aureus [1]): 32 µg/mL (≈ 77.8 µM)
MIC (Enterococcus faecalis [2]): 1 µg/mL (≈ 2.43 µM)
MIC (Staphylococcus aureus [3]): 4 µg/mL (≈ 9.72 µM)
MIC (Staphylococcus aureus [4]): 4 µg/mL (≈ 9.72 µM)
MIC (Staphylococcus aureus [5]): 16 µg/mL (≈ 38.9 µM)
MIC (Klebsiella pneumoniae): 4 µg/mL (≈ 9.72 µM)
MIC (Escherichia coli [6]): 64 µg/mL (≈ 156 µM)
MIC (Escherichia coli [7]): 1 µg/mL (≈ 2.43 µM)
MIC (Pseudomonas aeruginosa [8]): 128 µg/mL (≈ 311 µM)
MIC (Pseudomonas aeruginosa [9]): 16 µg/mL (≈ 38.9 µM)
MIC (Acinetobacter baumannii): 256 µg/mL (≈ 622 µM)

CCn1cc(C(=O)O)c(=O)c2cc(F)c(N3CCN(c4nccc(N)n4)CC3)cc21
MIC (Staphylococcus aureus [1]): 1 µg/mL (≈ 2.42 µM)
MIC (Enterococcus faecalis [2]): 0.25 µg/mL (≈ 0.606 µM)
MIC (Staphylococcus aureus [3]): 1 µg/mL (≈ 2.42 µM)
MIC (Staphylococcus aureus [4]): 0.5 µg/mL (≈ 1.21 µM)
MIC (Staphylococcus aureus [5]): 0.5 µg/mL (≈ 1.21 µM)
MIC (Klebsiella pneumoniae): 0.5 µg/mL (≈ 1.21 µM)
MIC (Escherichia coli [6]): 4 µg/mL (≈ 9.7 µM)
MIC (Escherichia coli [7]): 16 µg/mL (≈ 38.8 µM)
MIC (Pseudomonas aeruginosa [8]): 0.25 µg/mL (≈ 0.606 µM)
MIC (Pseudomonas aeruginosa [9]): 0.5 µg/mL (≈ 1.21 µM)
MIC (Acinetobacter baumannii): 4 µg/mL (≈ 9.7 µM)
Ratio (Enterococcus faecalis [10]): 16
Ratio (Enterococcus faecalis [11]): 4
Ratio (Staphylococcus aureus [12]): 4
Ratio (Staphylococcus aureus [13]): 8
MIC (Aspergillus fumigatus): 2 µg/mL (≈ 4.85 µM)
viability at 12.5 ug/ml [14]: > 90%
viability at 50 ug/ml [15]: 70%
log(activity) (Enterococcus faecalis [16]): 2.5
log(activity) (Enterococcus faecalis [17]): 3.5
inhibition at 2 µg/mL (Enterococcus faecalis [18]): 53.9%
fold change (FC) [19]: 2.5
Activity (Calf thymus DNA [20]): Active
Activity (Calf thymus DNA [21]): Active
K (Calf thymus DNA [22]): 1.01 10^5L/mol
Activity (Calf thymus DNA [23]): Active

OC(Cn1cncn1)(Cn1cncn1)c1ccc(F)cc1F [FLUCONAZOLE]
MIC (Aspergillus fumigatus): 256 µg/mL (≈ 836 µM)

CCn1cc(C(=O)O)c(=O)c2cc(F)c(N3CCNCC3)cc21 [NORFLOXACIN]
MIC (Staphylococcus aureus [1]): 8 µg/mL (≈ 25.1 µM)
MIC (Enterococcus faecalis [2]): 4 µg/mL (≈ 12.5 µM)
MIC (Staphylococcus aureus [3]): 4 µg/mL (≈ 12.5 µM)
MIC (Staphylococcus aureus [4]): 2 µg/mL (≈ 6.26 µM)
MIC (Staphylococcus aureus [5]): 4 µg/mL (≈ 12.5 µM)
MIC (Klebsiella pneumoniae): 4 µg/mL (≈ 12.5 µM)
MIC (Escherichia coli [6]): 8 µg/mL (≈ 25.1 µM)
MIC (Escherichia coli [7]): 8 µg/mL (≈ 25.1 µM)
MIC (Pseudomonas aeruginosa [8]): 4 µg/mL (≈ 12.5 µM)
MIC (Pseudomonas aeruginosa [9]): 4 µg/mL (≈ 12.5 µM)
MIC (Acinetobacter baumannii): 2 µg/mL (≈ 6.26 µM)

CCc1cnc(N2CCN(c3cc4c(cc3F)c(=O)c(C(=O)O)cn4CC)CC2)nc1
MIC (Staphylococcus aureus [1]): 2 µg/mL (≈ 4.7 µM)
MIC (Enterococcus faecalis [2]): 2 µg/mL (≈ 4.7 µM)
MIC (Staphylococcus aureus [3]): 8 µg/mL (≈ 18.8 µM)
MIC (Staphylococcus aureus [4]): 2 µg/mL (≈ 4.7 µM)
MIC (Staphylococcus aureus [5]): 64 µg/mL (≈ 150 µM)
MIC (Klebsiella pneumoniae): 2 µg/mL (≈ 4.7 µM)
MIC (Escherichia coli [6]): 16 µg/mL (≈ 37.6 µM)
MIC (Escherichia coli [7]): 1 µg/mL (≈ 2.35 µM)
MIC (Pseudomonas aeruginosa [8]): 2 µg/mL (≈ 4.7 µM)
MIC (Pseudomonas aeruginosa [9]): 128 µg/mL (≈ 301 µM)
MIC (Acinetobacter baumannii): 128 µg/mL (≈ 301 µM)

O=C(O)c1cn(C2CC2)c2cc(N3CCNCC3)c(F)cc2c1=O [CIPROFLOXACIN]
MIC (Staphylococcus aureus [1]): 2 µg/mL (≈ 6.04 µM)
MIC (Enterococcus faecalis [2]): 1 µg/mL (≈ 3.02 µM)
MIC (Staphylococcus aureus [3]): 2 µg/mL (≈ 6.04 µM)
MIC (Staphylococcus aureus [4]): 2 µg/mL (≈ 6.04 µM)
MIC (Staphylococcus aureus [5]): 0.5 µg/mL (≈ 1.51 µM)
MIC (Klebsiella pneumoniae): 2 µg/mL (≈ 6.04 µM)
MIC (Pseudomonas aeruginosa [9]): 1 µg/mL (≈ 3.02 µM)

O=C(O)c1cn(C2CC2)c2cc(N3CCN(c4nccc(C(F)(F)F)n4)CC3)c(F)cc2c1=O
MIC (Staphylococcus aureus [1]): 64 µg/mL (≈ 134 µM)
MIC (Enterococcus faecalis [2]): 8 µg/mL (≈ 16.8 µM)
MIC (Staphylococcus aureus [3]): 128 µg/mL (≈ 268 µM)
MIC (Staphylococcus aureus [4]): 128 µg/mL (≈ 268 µM)
MIC (Staphylococcus aureus [5]): 64 µg/mL (≈ 134 µM)
MIC (Klebsiella pneumoniae): 128 µg/mL (≈ 268 µM)
MIC (Escherichia coli [6]): 128 µg/mL (≈ 268 µM)
MIC (Escherichia coli [7]): 32 µg/mL (≈ 67 µM)
MIC (Pseudomonas aeruginosa [8]): 64 µg/mL (≈ 134 µM)
MIC (Pseudomonas aeruginosa [9]): 128 µg/mL (≈ 268 µM)
MIC (Acinetobacter baumannii): > 256 µg/mL
